Experimental data: US20160187320A1, “ASSAY FOR SCREENING COMPOUNDS THAT SELECTIVELY DECREASE THE NUMBER OF CANCER STEM CELLS” (THE ROGOSIN INSTITUTE, priority 2011, published 2016)

Columns and labels:
[1] = test system: Docetaxel resistant (DR) cells (DU145-DR, 22RV1-DR); test: Cross-resistance of Docetaxel resistant (DR) cells; type: cell-based, human; settings: data not shown
22RV1 cells = test: Cell viability assay (MTS), parental 22RV1; type: cell-based; settings: Homo sapiens; parental 22RV1, 72 hours; read-out: Docetaxel IC50
Description: (§1) Human hormone-independent prostate cancer cell lines, DU-145 and 22RV1, were obtained from American Type Culture Collection (ATCC) and maintained in RPMI 1640 medium (Gibco, Invitrogen Corp., Carlsbad, Calif.) supplemented with 10% FBS without antibiotics. Cells were grown at 37° C. in a humidified atmosphere with 5% CO2. DU145 and 22RV1 cells were selected in order to generate a prostate cancer Docetaxel resistance model. […] Thus, the generation of acquired Docetaxel resistance in these two phenotypically distinct cell lines facilitated an approach to study the molecular processes involved in the acquisition of Docetaxel resistance. Docetaxel resistant clones, DU-145-DR and 22RV1-DR, were selected by culturing cells with Docetaxel in a dose-escalation manner. Initial culture was at 5 nM Docetaxel. […]
(§2) Cell viability was analyzed using the Cell titer 96 Aquos Non-Reactive Cell Proliferation Assay (MTS) kit (Promega Corp., Madison, Wis.). […] After 72 hours, color absorbance was measured on a microplate spectrophotometer (Molecular Dynamics) at 450 nm (test wavelength) and 620 nm (reference wavelength). […] Cells were then fixed with 4% paraformaldehyde in PBS, stained with crystal violet solution and formed colonies were visually counted.

22RV1-DR cells = test: Cell viability assay (MTS), Docetaxel resistant 22RV1-DR; type: cell-based, human; settings: for IC50: Homo sapiens
Description: as §1, with “Docetaxel. After the sensitive clones were no longer present and the surviving DU-145 and 22RV1 cells repopulated the flask, the concentration of Docetaxel was increased to 10 nM and subsequently to 25 nM, 50 nM, 100 nM and 250 nM. 22RV1-DR cells were further exposed to 500 nM Docetaxel. After exposure to each increasing dose of Docetaxel, the remaining surviving cells were maintained in culture medium containing the last selection escalating dose of Docetaxel. The last drug selection concentration at which the cells were exposed was 250 nM for DU-145-DR and 500 nM for 22RV1-DR, in order to avoid reversibility of the acquired Docetaxel resistance phenotype. The process of acquired drug resistance took 9 months for DU-145-DR and 6.5 months for 22RV1-DR.” for “Docetaxel.”
as §2

DU145 cells = test: Cell viability assay (MTS), parental DU145; type: cell-based; settings: Homo sapiens, DU-145; parental DU145, 72 hours; read-out: Docetaxel IC50
Description: as §1, §2

DU145-DR cells = test: Cell viability assay (MTS), Docetaxel resistant DU145-DR; type: cell-based, human; settings: for IC50: Homo sapiens
Description: as §1, with “Docetaxel. After the sensitive clones were no longer present and the surviving DU-145 and 22RV1 cells repopulated the flask, the concentration of Docetaxel was increased to 10 nM and subsequently to 25 nM, 50 nM, 100 nM and 250 nM. 22RV1-DR cells were further exposed to 500 nM Docetaxel. After exposure to each increasing dose of Docetaxel, the remaining surviving cells were maintained in culture medium containing the last selection escalating dose of Docetaxel. The last drug selection concentration at which the cells were exposed was 250 nM for DU-145-DR and 500 nM for 22RV1-DR, in order to avoid reversibility of the acquired Docetaxel resistance phenotype. The process of acquired drug resistance took 9 months for DU-145-DR and 6.5 months for 22RV1-DR.” for “Docetaxel.”
as §2

[2] = test system: 22RV1 and DU145 parental (sensitive) cells; test: Colony formation assay, Docetaxel sensitive parental cells; type: cell-based, human; settings: continuous Docetaxel for 21 days (25 nM in 22RV1, 5 nM in DU145)
Description: (§3) Cell viability was analyzed using the Cell titer 96 Aquos Non-Reactive Cell Proliferation Assay (MTS) kit (Promega Corp., Madison, Wis.). Cells were seeded at a density of 10^4 in 96-well culture dishes and 24 hours later medium was removed and replaced with new medium alone (control) or medium containing drugs. After 72 hours, color absorbance was measured on a microplate spectrophotometer (Molecular Dynamics) at 450 nm (test wavelength) and 620 nm (reference wavelength). The percentage of surviving cells was estimated by dividing the A 450 nm-A 620 nm of treated cells by the A 450 nm-A 620 nm of control cells. Clonogenic survival assays in response to drug treatment were performed by plating 10^3 cells in 35 mm culture dishes. After 24 hours, cells were left untreated (control) or treated with drugs. Next day, medium was changed and the cells kept growing in fresh medium without any drug or under continuous exposure to drugs. For these continuous exposure experiments, medium plus drugs were replaced every 3 days until clones of drug-resistant cells appeared. Cells were then fixed with 4% paraformaldehyde in PBS, stained with crystal violet solution and formed colonies were visually counted.

[3] = test system: 22RV1-DR and DU145-DR (resistant) cells; test: Colony formation assay, Docetaxel resistant cells; type: cell-based, human; settings: continuous Docetaxel for 21 days
Description: as §3

[4] = test system: DU145-CK19 promoter-GFP stable cells; test: Flow cytometry of GFP populations surviving Docetaxel; type: cell-based, human; settings: Docetaxel 10 nM, 48 hours
Source text: CK19 gene promoter region was amplified from DU145 cells genomic DNA by PCR with specific primer sets (Fw 5′-[…]-3′ (SEQ ID NO: 1) and Rv 5′-[…]-3′ (SEQ ID NO: 2)) as described previously (Tripathi et al., 2005. The PCR products were digested with Ase I and Hind III and cloned into pEGFPN1 vector (Clontech, Mountain View, Calif.) previously digested with the same enzymes. As a result, the CMV promoter was removed from the original vector and the GFP expression was under control of the CK19 promoter. The final construct was confirmed by digestion and sequencing analysis. DU145 cells were transfected with pCK19-GFP construct using Lipofectamine Plus 2000 (Invitrogen). After 24 hours, medium was replaced with fresh medium and stably expressing cells selected in the presence of G418 (Invitrogen). Positive clones were confirmed by direct microscopy and immunofluorescence and also by PCR amplification of GFP coding region using specific primers (Fw 5′-[…]-3′ (SEQ ID NO: 3) and Rv 5′-[…]-3′ (SEQ ID NO: 4)).
Flow cytometry analysis of subpopulations of prostate cancer cells were carried out following standard procedures. Intracellular CK19 and CK18 expression was performed in single-cell suspensions fixed with 70% ethanol, whereas the expression of cell surface HLA class I and GFP was determined in fresh cell samples (without fixation). […] A minimum of 10^4 cells were measured per sample.

[5] = test system: DU145-CK19 promoter-GFP stable cells sorted by GFP/HLA class I; test: Colony formation assay of GFP/HLA class I sorted cells under Docetaxel; type: cell-based, human; settings: Docetaxel 10 nM continuously
Description: as §3

N.N.[Cl][Pt][Cl] [Cisplatin]
cross-resistance of Docetaxel resistant cells [1]: cross-resistance

CC(=O)O[C@@]12CO[C@@H]1C[C@H](O)[C@@]1(C)C(=O)[C@H](O)C3=C(C)[C@@H](OC(=O)[C@H](O)[C@@H](NC(=O)OC(C)(C)C)c4ccccc4)C[C@@](O)([C@@H](OC(=O)c4ccccc4)[C@H]21)C3(C)C [Docetaxel]
IC50 (22RV1 cells): 25 nM
fold increase of Docetaxel IC50 (22RV1-DR cells; 22RV1-DR versus 22RV1): 400 fold
IC50 (22RV1-DR cells; 22RV1-DR acquired resistant cells, 72 hours): 10000 nM
IC50 (22RV1-DR cells; 22RV1-DR after 12 weeks of drug withdrawal): 50 nM
IC50 (DU145 cells): 5 nM
fold increase of Docetaxel IC50 (DU145-DR cells; DU145-DR versus DU145): 200 fold
IC50 (DU145-DR cells; DU145-DR acquired resistant cells, 72 hours): 1000 nM
IC50 (DU145-DR cells; DU145-DR after 12 weeks of drug withdrawal): 25 nM
colony formation [2]: No colonies were observed
colony formation [3]: colonies were observed
GFP-negative phenotype, % of the total population after treatment ([4]; initially 6.4±4.3%): 73.1±10.2%
GFP-positive phenotype, % of the total cell population after treatment ([4]; initially 87.5±10.4%): 28.3±10.6%
clone formation under continuous exposure [5]: only tumour cells with a GFP-negative/HLA class I-negative phenotype were able to form clones

COc1cccc2c1C(=O)c1c(O)c3c(c(O)c1C2=O)C[C@@](O)(C(=O)CO)C[C@@H]3O[C@H]1C[C@H](N)[C@H](O)[C@H](C)O1 [Doxorubicin]
cross-resistance of Docetaxel resistant cells [1]: cross-resistance

O=C1c2c(O)ccc(O)c2C(=O)c2c(NCCNCCO)ccc(NCCNCCO)c21 [Mitoxantrone]
cross-resistance of Docetaxel resistant cells [1]: cross-resistance

CC(=O)O[C@H]1C(=O)[C@@]2(C)[C@H]([C@H](OC(=O)c3ccccc3)[C@]3(O)C[C@H](OC(=O)[C@H](O)[C@@H](NC(=O)c4ccccc4)c4ccccc4)C(C)=C1C3(C)C)[C@]1(OC(C)=O)CO[C@@H]1C[C@@H]2O [Paclitaxel]
cross-resistance of Docetaxel resistant cells [1]: cross-resistance

CCC1=C[C@@H]2CN(C1)Cc1c([nH]c3ccccc13)[C@@](C(=O)OC)(c1cc3c(cc1OC)N(C)[C@H]1[C@@](O)(C(=O)OC)[C@H](OC(C)=O)[C@]4(CC)C=CCN5CC[C@]31[C@@H]54)C2 [Vinorelbine]
cross-resistance of Docetaxel resistant cells [1]: cross-resistance
